{"source": "patent US9730922B2", "about": "“Combined therapy for cystic fibrosis” (I.E.R.F.C. EUROPEAN INSTITUTE FOR CYSTIC FIBROSIS RESEARCH, priority 2012, dated 2017)", "key": {"Cftr^F508del mice": {"test_system": "Cftr^F508del mice", "experiment": "Cftr^F508del mice, CFTR localisation and lung inflammation", "type": "in vivo", "details": "for signs of lung inflammation: wt littermates"}, "ΔF508-CFTR [1]": {"biological_target": "T1, ΔF508-CFTR (Homo sapiens, UniProt P13569, DEL508-508)", "T1 sequence (P13569 with tags, fused parts or gaps DEL508-508)": "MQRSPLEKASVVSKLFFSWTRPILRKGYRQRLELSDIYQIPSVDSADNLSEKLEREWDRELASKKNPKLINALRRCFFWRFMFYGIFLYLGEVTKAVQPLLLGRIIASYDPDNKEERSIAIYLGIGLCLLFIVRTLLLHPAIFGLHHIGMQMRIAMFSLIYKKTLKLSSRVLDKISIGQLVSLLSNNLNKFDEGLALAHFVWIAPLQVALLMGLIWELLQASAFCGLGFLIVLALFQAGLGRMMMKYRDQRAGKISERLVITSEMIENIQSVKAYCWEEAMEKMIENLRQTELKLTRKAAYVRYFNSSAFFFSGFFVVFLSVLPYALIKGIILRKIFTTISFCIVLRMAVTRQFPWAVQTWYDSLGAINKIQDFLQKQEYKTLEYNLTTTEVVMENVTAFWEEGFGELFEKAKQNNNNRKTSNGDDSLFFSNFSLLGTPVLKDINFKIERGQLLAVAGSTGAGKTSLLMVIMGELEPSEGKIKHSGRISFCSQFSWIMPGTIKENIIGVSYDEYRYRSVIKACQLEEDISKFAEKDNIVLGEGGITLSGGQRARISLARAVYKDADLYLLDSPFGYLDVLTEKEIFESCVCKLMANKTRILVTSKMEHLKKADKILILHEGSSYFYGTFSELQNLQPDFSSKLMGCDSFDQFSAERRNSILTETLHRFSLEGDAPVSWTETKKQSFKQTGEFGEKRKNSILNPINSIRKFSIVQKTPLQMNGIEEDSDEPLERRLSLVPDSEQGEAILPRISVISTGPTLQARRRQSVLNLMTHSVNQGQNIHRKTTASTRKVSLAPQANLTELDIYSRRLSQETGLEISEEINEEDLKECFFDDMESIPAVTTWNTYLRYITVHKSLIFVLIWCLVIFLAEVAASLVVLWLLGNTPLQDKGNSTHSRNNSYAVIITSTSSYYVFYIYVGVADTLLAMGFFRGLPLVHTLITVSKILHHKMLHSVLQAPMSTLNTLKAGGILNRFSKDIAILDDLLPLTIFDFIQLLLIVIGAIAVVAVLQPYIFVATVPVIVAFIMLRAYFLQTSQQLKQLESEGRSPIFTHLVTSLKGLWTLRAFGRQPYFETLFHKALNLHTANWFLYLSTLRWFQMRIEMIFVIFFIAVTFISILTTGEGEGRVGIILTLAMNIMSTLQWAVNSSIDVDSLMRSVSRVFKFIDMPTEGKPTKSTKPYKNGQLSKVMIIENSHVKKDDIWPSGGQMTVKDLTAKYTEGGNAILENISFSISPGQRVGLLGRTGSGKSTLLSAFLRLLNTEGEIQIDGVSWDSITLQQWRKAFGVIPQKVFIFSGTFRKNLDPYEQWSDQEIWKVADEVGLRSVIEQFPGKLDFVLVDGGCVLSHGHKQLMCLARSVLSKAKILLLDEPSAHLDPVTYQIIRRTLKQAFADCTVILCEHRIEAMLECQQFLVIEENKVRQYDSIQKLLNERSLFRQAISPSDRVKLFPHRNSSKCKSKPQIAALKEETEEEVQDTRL", "experiment": "SPQ halide (iodide) efflux assay in freshly isolated brushed nasal epithelial cells", "type": "cell-based", "design": "Nasal epithelial cells freshly isolated by nasal brushing from 5 CF patients carrying ΔF508/ΔF508 CFTR mutations; endogenous in cells; host or cells: primary brushed nasal epithelial cells from ΔF508/ΔF508 CF patients", "details": "18 h exposure, wash and reculture 24 h with medium; brushed nasal cells from ΔF508/ΔF508 patients", "description": "We examined whether cystamine or EUK-134 (Luciani A, 2010) would induce and sustain functional ΔF508-CFTR expression in freshly isolated brushed nasal epithelial cells from ΔF508/ΔF508 patients (Table 1A). We used primary nasal epithelial cells freshly obtained from ΔF508-CFTR homozygous patients, to directly test the efficacy of these autophagy-rescuing strategies on CFTR function in human airways. We used a fluorescent-based SPQ halide efflux assays (Silvis M R, 2009) to test the response to a short pulse of forskolin (FSK) added together with either of two different CFTR potentiators, genistein or VX-532, (Van Goor F, 2010) and analyzed at least 50 brushed nasal cells for group of treatment in each patient. Freshly isolated brushed nasal epithelial cells were incubated for 18 h with either cystamine or EUK-134 or with the well known CFTR correctors Corr-4a and VRT-325.\nNasal epithelial cells freshly isolated by nasal brushing from 5 CF patients carrying ΔF508/ΔF508 CFTR mutations (see Table 1A) and 5 non-CF age- and sex-matched controls (3 F, mean age 12.5 yrs) were immersed in washing solution (PBS, DTT 2 mM, EDTA 10 mM) at 37° C. for 1 h on thermal shaker, centrifuged at 2,300×g for 20 min and washed in PBS. The isolated cells were maintained in 1 ml MEM Earl's salt L-Glutamine medium supplemented with 10% FBS and the appropriate amount of penicillin/streptomycin.^31 Brushed nasal cells were cultured for 18 h with medium, Vrx-325, Corr-4a (10 μM up to 50 μM) (kindly provided by Cystic Fibrosis Foundation, USA), cystamine (250 μM, Sigma-Aldrich), EUK-134 (50 μg ml^−1, Vinci Biochem), followed by 24 h of incubation with medium alone.\nIodide efflux. […] Changes in CFTR-mediated SPQ fluorescence were monitored at the 445 nm wavelength in response to excitation at 340 nm during perfusion at 37° C. in nitrate buffer (NaI replaced with 130 mM NaNO3) for 10 min with 20 μM forskolin plus 50 μM genistein or 20 μM forskolin plus 20 μM VRX-532 (kindly provided by Cystic Fibrosis Foundation, USA). The peak iodide efflux rate (usually 12 min after forskolin plus genistein or forskolin plus Vrx-532) of treated or untreated cells was calculated in accordance with the Stern-Volmer relationship as follows: (Fo/F)−1=KCQ\nwhere F is the observed fluorescence, Fo is the fluorescence in the absence of a quenching anion, CQ is the concentration of the quenching anion, and K is the Stern-Volmer quench constant. The rates were calculated using SigmaPlot Version 7.1 for each mean fluorescence trace generated from the 50 cells examined per population per coverslip."}, "[2]": {"test_system": "ΔF508-CFTR homozygous airways", "details": "mice in vivo and human tissues in vitro; cited from earlier work"}, "ΔF508-CFTR [3]": {"biological_target": "T1, ΔF508-CFTR", "experiment": "CFTR function in airway epithelial cell lines after pre-treatment, washout and pulse with potentiators", "type": "cell-based", "design": "airway epithelial cell lines carrying ΔF508/ΔF508 CFTR mutations; endogenous in cells", "details": "for enabling the activity of genistein, VX-532 and VX-770 on ΔF508-CFTR: 48 h after withdrawal of the pre-treatment; for enabling the action of CFTR potentiators genistein or VX-532 in stimulating CFTR channel function: pre-treatment 18 h, washout 48 h, single pulse with potentiator, ΔF508/ΔF508 airway epithelial cell lines; for stimulating CFTR function (as potentiator): after pre-treatment with the mentioned molecules followed by 48 h of washout", "quoted_text": "To provide the rationale for the use of either TG2 inhibitors or drugs that reduce ROS levels as pre-treatment before the administration of CFTR potentiators, another experimental setting was used, where airway epithelial cell lines carrying ΔF508/ΔF508 CFTR mutations were treated with cystamine or EUK-134 or where TG2 was depleted by a small interference RNA approach or where ROS were reduced by the overexpression of the human Manganese Superoxide-dismutase (Mn-SOD).\nAnother experimental approach was used to test the efficacy of other pharmacological agents able to damp down TG2 and/or reduce the levels of ROS. […] These pharmacological agents were tested following the experimental approach of pre-treatment (18 h), washout (48 h) and single pulse with potentiators, in presence or absence of PA-LPS stimulation after pulse with potentiators, following the procedure above described.\nMoreover, the efficacy of other molecules endowed with either ROS inhibiting activity or potentiator activity was tested."}, "[4]": {"test_system": "ΔF508-CFTR homozygous patients", "details": "cited from earlier work"}, "[5]": {"test_system": "nasal polyp biopsies from ΔF508/ΔF508 patients", "experiment": "ex vivo cultures of nasal polyp mucosal biopsies (confocal microscopy, in situ TG2 activity)", "type": "cell-based, human", "procedure": "Nasal polyp biopsies from five ΔF508/ΔF508 patients (Table 1B) were treated with cystamine for 18 h, washed and then cultured for further 36 h in the absence of cystamine.\nNext, ΔF508/ΔF508 nasal polyp biopsies were pulsed for 30 min with genistein followed by 4 h incubation with PA-LPS. […] To examine whether pre-treatment with cystamine was effective in enabling the action of genistein in human airways, nasal polyp biopsies were incubated with cystamine or medium for 18 h, then washed and kept in medium alone for 24 h and finally pulsed for 30 min with genistein followed by 4 h PA-LPS.\nHuman samples: ex vivo cultures of nasal polyp mucosal biopsies. Nasal polyp biopsies from 5 ΔF508 homozygous patients undergoing surgical treatment for non-allergic nasal polyposis (see Table 1B) were cultured as previously described,^7,19,32 for 18 h with medium, cystamine or EUK-134, followed by 36 h of incubation with medium alone, and then pulsed for 30 min with medium or genistein followed by 4 h of PA-LPS challenge.\nHuman tissue sections: five-micrometer frozen human lung tissue sections were fixed in acetone for 10 min. The sections were incubated for 2 h at room temperature with the indicated antibodies (Abs). […] The primary Abs were: CFTR 1:100 (CF3, Abcam), CFTR 1:100 (H-182, Santa Cruz Biotecnology) (used on mouse tissue), phospho-Tyr 1:200 (Santa Cruz Biotecnology), p62 1:300 (Sigma). These were followed by incubation with Alexa 488 or 546 secondary antibodies (Molecular Probe, Invitrogen). Data were analyzed under fluorescence examination by a LSM510 Zeiss confocal laser-scanning unit (Carl Zeiss, Germany).\nIn situ detection of TG2 exzyme activity. TG2 activity in tissue samples was detected by incubating unfixed sections with biotinylated monodansylcadaverine for 1 h at 37° C. The incorporation of labeled substrate was visualized by incubation with Alexa 546-conjugated streptavidin (1:100; Molecular Probes, Invitrogen) for 30 min."}, "[6]": {"details": "i.p. 7 days followed by 10 days of vehicle only"}}, "data": [{"molecule": "Cn1cnc(N)c2ncnc1-2", "note": "[3-MA]", "values": [{"measurement": "effects of cystamine (ΔF508 re-location, reduced lung inflammation) with co-treatment during the phase of withdrawal", "setting": "Cftr^F508del mice; intraperitoneal treatment during the withdrawal phase", "value": "abrogated"}]}, {"molecule": "COc1ccc(Cl)cc1Nc1nc(-c2sc(NC(=O)c3ccccc3)nc2C)cs1", "note": "[Corr-4a]", "values": [{"measurement": "ΔF508-CFTR response to a short pulse of forskolin plus genistein or VX-532 (SPQ halide efflux)", "setting": "ΔF508-CFTR [1]", "value": "only had scarce effects"}]}, {"molecule": "COc1cccc(C=NCCN=Cc2cccc(OC)c2[O-])c1[O-].[Cl-].[Mn+3]", "note": "[EUK-134]", "values": [{"measurement": "inflammation in ΔF508-CFTR homozygous airways", "setting": "[2]", "value": "blunts inflammation"}, {"measurement": "enabling the activity of genistein, VX-532 and VX-770 on ΔF508-CFTR", "setting": "ΔF508-CFTR [3]", "value": "enables the activity of the CFTR potentiators genistein and VX-532 as well as of the well known CFTR potentiator VX-770"}, {"measurement": "enabling the action of CFTR potentiators genistein or VX-532 in stimulating CFTR channel function", "setting": "ΔF508-CFTR [3]", "value": "similarly effective in enabling the action of CFTR potentiators"}, {"measurement": "ΔF508-CFTR response to a short pulse of forskolin plus genistein or VX-532 (SPQ halide efflux)", "setting": "ΔF508-CFTR [1]", "value": "rendered the cells capable of conserving ΔF508-CFTR response"}]}, {"molecule": "COc1ccc(S(=O)(=O)N2CCN(C(C)c3nc(OC4CCCCC4)c4ccccc4n3)CC2)cc1", "note": "(centres unmarked) [VRT-325]", "values": [{"measurement": "ΔF508-CFTR response to a short pulse of forskolin plus genistein or VX-532 (SPQ halide efflux)", "setting": "ΔF508-CFTR [1]", "value": "only had scarce effects"}]}, {"molecule": "Cc1ccc(NC(=O)C2(c3ccc4c(c3)OC(F)(F)O4)CC2)nc1-c1cccc(C(=O)O)c1", "note": "[VX-809]", "values": [{"measurement": "lung function or CF complications", "setting": "[4]", "value": "no improvement"}, {"measurement": "sweat chloride", "setting": "[4]", "value": "modest dose-dependent reductions"}]}, {"molecule": "CC(=O)N[C@@H](CS)C(=O)O", "note": "[acetylcysteine]", "values": [{"measurement": "inflammation in ΔF508-CFTR homozygous airways", "setting": "[2]", "value": "blunts inflammation"}]}, {"molecule": "O=c1cc(-c2ccc(O)cc2)oc2cc(O)cc(O)c12", "note": "[apigenin]", "values": [{"measurement": "stimulating CFTR function (as potentiator)", "setting": "ΔF508-CFTR [3]", "value": "as effective as genistein in stimulating CFTR function"}]}, {"molecule": "NCCSSCCN", "note": "[cystamine]", "values": [{"measurement": "reduction of signs of mucosal inflammation (TG2 activation and protein tyrosine phosphorylation)", "setting": "[5]; cystamine 18 h, washed, 36 h washout", "value": "persisted after 36 h of washout"}, {"measurement": "rescue of CFTR at the epithelial surface (confocal microscopy)", "setting": "[5]; cystamine 18 h, washed, 36 h without cystamine", "value": "persisted for 36 h after cystamine withdrawal"}, {"measurement": "lung inflammation", "setting": "Cftr^F508del mice; daily inhalations of aerosolized 0.2 mg/mouse/day for one week", "value": "reduced lung inflammation"}, {"measurement": "re-location of ΔF508 protein at the respiratory epithelial surface", "setting": "Cftr^F508del mice; [6]", "value": "persisted for 10 days after cystamine withdrawal"}, {"measurement": "reducing lung inflammation", "setting": "Cftr^F508del mice; [6]", "value": "persisted for 10 days after cystamine withdrawal"}, {"measurement": "signs of lung inflammation", "setting": "Cftr^F508del mice", "value": "not effective"}, {"measurement": "inflammation in ΔF508-CFTR homozygous airways", "setting": "[2]", "value": "blunts inflammation"}, {"measurement": "enabling the activity of genistein, VX-532 and VX-770 on ΔF508-CFTR", "setting": "ΔF508-CFTR [3]", "value": "enables the activity of the CFTR potentiators genistein and VX-532 as well as of the well known CFTR potentiator VX-770"}, {"measurement": "enabling the action of CFTR potentiators genistein or VX-532 in stimulating CFTR channel function", "setting": "ΔF508-CFTR [3]", "value": "similarly effective in enabling the action of CFTR potentiators"}, {"measurement": "ΔF508-CFTR response to a short pulse of forskolin plus genistein or VX-532 (SPQ halide efflux)", "setting": "ΔF508-CFTR [1]", "value": "rendered the cells capable of conserving ΔF508-CFTR response"}]}, {"molecule": "Oc1cc(O)c2c(c1)O[C@H](c1cc(O)c(O)c(O)c1)[C@H](O)C2", "note": "[epigallocatechin]", "values": [{"measurement": "stimulating CFTR function (as potentiator)", "setting": "ΔF508-CFTR [3]", "value": "as effective as genistein in stimulating CFTR function"}]}, {"molecule": "O=c1c(-c2ccc(O)cc2)coc2cc(O)cc(O)c12", "note": "[genistein]", "values": [{"measurement": "epithelial protein phosphorylation", "setting": "[5]; 30 min pulse followed by 4 h PA-LPS, no pre-treatment", "value": "not effective in reducing epithelial protein phosphorylation"}, {"measurement": "signs of lung inflammation after genistein pulse and aerosolized PA-LPS", "setting": "Cftr^F508del mice; mice not pretreated with cystamine", "value": "had no effect on its own"}, {"measurement": "signs of lung inflammation after genistein pulse and aerosolized PA-LPS", "setting": "Cftr^F508del mice; mice pre-treated with aerosolized cystamine one week, one week without treatment", "value": "significantly reduced the signs of lung inflammation"}, {"measurement": "signs of lung inflammation", "setting": "Cftr^F508del mice", "value": "not effective"}]}, {"molecule": "O=c1c(O)c(-c2ccc(O)c(O)c2)oc2cc(O)cc(O)c12", "note": "[quercetin]", "values": [{"measurement": "stimulating CFTR function (as potentiator)", "setting": "ΔF508-CFTR [3]", "value": "as effective as genistein in stimulating CFTR function"}]}, {"molecule": "COc1cc(C2Oc3cc([C@H]4Oc5cc(O)cc(O)c5C(=O)[C@@H]4O)ccc3OC2CO)ccc1O", "note": "(some centres unmarked) [silybin]", "values": [{"measurement": "stimulating CFTR function (as potentiator)", "setting": "ΔF508-CFTR [3]", "value": "as effective as genistein in stimulating CFTR function"}]}, {"molecule": "catechin", "values": [{"measurement": "stimulating CFTR function (as potentiator)", "setting": "ΔF508-CFTR [3]", "value": "as effective as genistein in stimulating CFTR function"}]}]}
